Assay results: US20260176700A1, “TOXICITY MARKER FOR 5-FLUOROURACIL” (Oxford University Innovation Limited, priority 2022, published 2026)

What was measured:
[1] = test system: colorectal cancer patients; assay: QUASAR 2 clinical trial: cardiovascular related adverse events under capecitabine; type: in vivo, human; conditions: stage II/III colorectal cancer patients administered capecitabine (alone or plus bevacizumab), most common events cardiac chest pain and angina
Protocol: QUASAR 2, a randomised controlled trial of capecitabine+bevacizumab has been described previously (Kerr, R. S., et al. Lancet Oncol, 2016. 17(11):1543-1557; and Rosmarin, D., et al. Gut, 2015. 64(1):111-20). Briefly, participants were stage II/stage III colorectal cancer patients with performance status 0/1 and normal renal function. Patients were randomly assigned (1:1) to receive eight 3-week cycles of oral capecitabine alone (1250 mg/m^2 twice daily for 14 days followed by a break for 7 days) or the same regimen of oral capecitabine plus 16 cycles of 7.5 mg/kg bevacizumab by intravenous infusion over 90 min on day 1 of each cycle. All patients consented for use of biological samples and medical records in research. Cardiovascular toxicity was confirmed by two independent clinicians reviewing patient case report forms.
3% of colorectal cancer patients administered with capecitabine as part of the QUASAR 2 clinical trial experienced cardiovascular related adverse events. The most commonly described events were cardiac chest pain and angina. The inventors performed a genome wide association study to identify genetic markers associated with cardiovascular adverse events under an additive genetic model. Given the rarity of cardiovascular toxicity, variants with a minor allele frequency (MAF)<10% were filtered out. […]

[2] = test system: patients with reduced DPD activity; conditions: patients with germline DPYD variants / reduced DPD activity, 5FU-related toxicity; cited from earlier work

SMILES | patients who experienced cardiovascular related adverse events [1] [%] | patients with reduced DPD activity who experience cardiotoxicity [2]
CCCCCOC(=O)Nc1nc(=O)n(C2OC(C)C(O)C2O)cc1F (centres unmarked) [capecitabine, pentyl [1-(3,4-dihydroxy-5-methyltetrahydrofuran-2-yl)-5-fluoro-2-oxo-1H-pyrimidin-4-yl]carbamate] | 3 | 
O=c1[nH]cc(F)c(=O)[nH]1 [5FU, 5-flurouracil] |  | 2-5%
